Here are results for 24 compounds from patent publication US6680336B2, “Cyclic AMP-specific phosphodiesterase inhibitors” (ICOS Corporation, priority 1999, dated 2004).

Structures are written as SMILES.

As usually defined, the IC50 is the concentration that gives 50% inhibition. As usually defined, the EC50 is the concentration that produces a half-maximal response. A higher EC50 goes with a less potent agent.

One experiment addresses T1, recombinant human PDE4.
T1 construct: PDE4 IC50; other: human recombinant PDE4
Briefly: PDE4 inhibition, charcoal separation [32P]cAMP phosphodiesterase assay. Type of experiment: biochemical. As for the experimental part:
The compounds of structural formula (II) were tested for an ability to inhibit PDE4. The ability of a compound to inhibit PDE4 activity is related to the IC50 value for the compound, i.e., the concentration of inhibitor required for 50% inhibition of enzyme activity. The IC50 value for compounds of structural formula (II) were determined using recombinant human PDE4.
Recombinant production of human PDE1B, PDE2, PDE4A, PDE4B, PDE4C, PDE4D, PDE5, and PDE7 was carried out similarly to that described in Example 7 of U.S. Pat. No. 5,702,936, incorporated herein by reference, except that the yeast transformation vector employed, which is derived from the basic ADH2 plasmid described in Price et al., Methods in Enzymology, 185, pp. 308-318 (1990), incorporated yeast ADH2 promoter and terminator sequences and the Saccharomyces cerevisiae host was the protease-deficient strain BJ2-54 deposited on Aug. 31, 1998 with the American Type Culture Collection, Manassas, Va., under accession number ATCC 74465. Transformed host cells were grown in 2×SC-leu medium, pH 6.2, with trace metals, and vitamins. After 24 hours, YEP medium-containing glycerol was added to a final concentration of 2×YET/3% glycerol. Approximately 24 hr later, cells were harvested, washed, and stored at −70° C.
Phosphodiesterase activity of the preparations was determined as follows. PDE assays utilizing a charcoal separation technique were performed essentially as described in Loughney et al. (1996). In this assay, PDE activity converts [32P]cAMP or [32P]cGMP to the corresponding [32P]5′-AMP or [32P]5′-GMP in proportion to the amount of PDE activity present. The [32P]5′-AMP or [32P]5′-GMP then was quantitatively converted to free [32P]phosphate and unlabeled adenosine or guanosine by the action of snake venom 5′-nucleotidase. […] The assay was performed at 30° C. in a 100 μL reaction mixture containing (final concentrations) 40 mM Tris HCl (pH 8.0), 1 μM ZnSO4, 5 mM MgCl2, and 0.1 mg/mL bovine serum albumin (BSA). Alternatively, in assays assessing PDE1-specific activity, incubation mixtures further incorporated the use of 0.1 mM CaCl2 and 10 μg/mL calmodulin. PDE enzyme was present in quantities that yield <30% total hydrolysis of substrate (linear assay conditions). The assay was initiated by addition of substrate (1 mM [32P]cAMP or cGMP), and the mixture was incubated for 12 minutes. Seventy-five (75) μg of Crotalus atrox venom then was added, and the incubation was continued for 3 minutes (15 minutes total). The reaction was stopped by addition of 200 μL of activated charcoal (25 mg/mL suspension in 0.1 M […], pH 4). After centrifugation (750×g for 3 minutes) to sediment the charcoal, a sample of the supernatant was taken for radioactivity determination in a scintillation counter and the PDE activity was calculated.
Inhibitor analyses were performed similarly to the method described in Loughney et al., J. Biol. Chem., 271, pp. 796-806 (1996), except both cGMP and cAMP were used, and substrate concentrations were kept below 32 nM, which is far below the Km of the tested PDEs.

For experiment [1], the system named is TNFα secretion in human peripheral blood lymphocytes. Briefly: Lipopolysaccharide-stimulated TNFα release from human peripheral blood lymphocytes. Type of experiment: cell-based. The conditions noted are these: Lymphocyte; LPS-stimulated TNFα release from human PBL. As to the method: The compounds of structural formula (II) also were tested for an ability to reduce TNFα secretion in human peripheral blood lymphocytes. The ability to reduce TNFα secretion is related to the EC50 values i.e., the effective concentration pf the compound capable of inhibiting 50% of the total TNFα).
To assess the ability of a compound to reduce TNFα secretion in human peripheral blood lymphocytes (PBL), the following tests were performed.
Heparinized blood (approximately 30 mL) drawn from human volunteers was mixed 1:1 with Dulbecco's modified phosphate-buffered saline. This mixture was mixed 1:1 with HISTOPAQUE® and centrifuged at 1,500 rpm at room temperature without braking in the swinging bucket of a Beckman model TJ6 centrifuge. Erythrocytes were centrifuged to the bottom of the tubes, and serum remained at the surface of the tubes. A layer containing lymphocytes sedimented between the serum and HISTOPAQUE® layers, and was removed by aspiration to a fresh tube. The cells were quantified and adjusted to […] and a 100 μL aliquot is placed into the wells of a 96 well plate. Test compounds and RPMI media (Gibco/BRL Life Sciences) are added to each of the wells 15 minutes prior to addition of bacterial LPS ([…]). The mixture was allowed to incubate for 20 hours at 37° C. in a humidified chamber. The cells then were separated by centrifuging at 800 rpm for 5 minutes at room temperature. An aliquot of 180 μL of supernatant was transferred to a new plate for determination of TNFα concentration. TNFα protein in the cell supernatant fluids was measured using a commercially available enzyme-linked immunosorbent assay (ELISA) (CYTOSCREEN® Immunoassay Kit from Biosource International).
The cell-based assay provided the following results for various pyrrolidine compounds of the present invention. The EC50 values (i.e., effective concentration of the compound capable of inhibiting 50% of the total TNFα) illustrate the ability of the present compounds to inhibit LPS-stimulated TNFα release from human PBL.

As for `COc1ccc([C@@H]2CN(Cc3ccccc3)C[C@@]2(C)C(C)NC(=O)c2ccccc2)cc1OC1CCCC1` (stereo partly drawn) [Example 10, N-{1-[(3S,4S)-4-(3-Cyclopentyloxy-4-methoxyphenyl)-3-methyl-1-benzylpyrrolidin-3-yl]ethyl}benzamide], on recombinant human PDE4, the IC50 was determined as 2950 nM.

For the compound `COC(=O)N1CC(c2ccc(OC)c(OC3CCCC3)c2)[C@](C)(CNS(C)(=O)=O)C1` (stereo partly drawn) [Example 3], the IC50 at recombinant human PDE4 came to 3180 nM.

As for `CCNC[C@]1(C)CN(C(=O)OC)C[C@H]1c1ccc(OC)c(OC2Cc3ccccc3C2)c1` [Example 28], the EC50 in experiment [1] stood at 1390 nM. For the same compound, the IC50 on recombinant human PDE4 came out at 591 nM.

In the case of `COc1ccc([C@@H]2CN(Cc3ccccc3)C[C@@]2(C)C(C)NS(C)(=O)=O)cc1OC1CCCC1` (stereo partly drawn) [Example 18, {1-[(3S,4S)-4-(3-Cyclopentyloxy-4-methoxyphenyl)-3-methyl-1-benzylpyrrolidin-3-yl]ethyl}-(methylsulfonyl)amine], on recombinant human PDE4, the IC50 stood at 7390 nM.

Compound `COc1ccc([C@@H]2CN(C(=O)CO)C[C@@]2(C)CN)cc1OCC1CC1` [Example 27] gave an EC50 in experiment [1] of 816 nM. For the same compound, the IC50 at recombinant human PDE4 amounted to 479 nM.

For the compound `COC(=O)N1C[C@@H](c2ccc(OC)c(OC3CCCC3)c2)[C@](C)(CNC(=O)c2ccccc2)C1` [Example 5, Methyl (4S,3R)-4-(3-cyclopentyloxy-4-methoxyphenyl)-3-methyl-3-[(phenylcarbonylamino)methyl]pyrrolidinecarboxylate], the IC50 on recombinant human PDE4 was determined as 2510 nM.

`COc1ccc([C@@H]2CN(Cc3ccccc3)C[C@@]2(C)C(C)N)cc1OC1CCCC1` (stereo partly drawn) [Example 8, 1-[(3S,4S)-4-(3-Cyclopentyloxy-4-methoxyphenyl)-3-methyl-1-benzylpyrrolidin-3-yl]ethylamine] gave an EC50 in experiment [1] of 1560 nM. The IC50 at recombinant human PDE4 was 673 nM.

`COC(=O)N1CC(c2ccc(OC)c(OC3CCCC3)c2)[C@](C)(CNS(=O)(=O)c2ccccc2)C1` (stereo partly drawn) [Example 6] showed an EC50 in experiment [1] of 730 nM. Further, the IC50 at recombinant human PDE4 is 506 nM.

Regarding `COc1ccc(C2CN(Cc3ccccc3)C[C@@]2(C)C(C)NS(=O)(=O)c2ccccc2)cc1OC1CCCC1` (stereo partly drawn) [Example 16, {1-[(3S,4S)-4-(3-cyclopentyloxy-4-methoxyphenyl)-3-methyl-1-benzylpyrrolidin-3-yl]ethyl}-(phenylsufonyl)amine], at recombinant human PDE4, the IC50 was determined as 9080 nM.

Compound `COC(=O)N1C[C@@H](c2ccc(OC)c(OC3Cc4ccccc4C3)c2)[C@](C)(CN)C1` [Example 24] registered an EC50 in experiment [1] of 76.5 nM. The IC50 at recombinant human PDE4 came to 22.9 nM.

Take `COc1ccc([C@@H]2CN(Cc3ccccc3)C[C@@]2(C)C(C)NC(C)=O)cc1OC1CCCC1` (stereo partly drawn) [Example 13, N-{1-[(3S,4S)-4-(3-Cyclopentyloxy-4-methoxyphenyl)-3-methyl-1-benzylpyrrolidin-3-yl]ethyl}acetamide]: on recombinant human PDE4, the IC50 was 2440 nM.

For the compound `COc1ccc([C@@H]2CN(Cc3ccccc3)C[C@@]2(C)C(C)NS(=O)(=O)c2ccccc2)cc1OC1CCCC1` (stereo partly drawn) [Example 15, {1-[(3S,4S)-4-(3-Cyclopentyloxy-4-methoxyphenyl)-3-methyl-1-benzylpyrrolidin-3-yl]ethyl}-(phenylsulfonyl)amine], the IC50 at recombinant human PDE4 amounted to 8970 nM.

As for `COC(=O)N1C[C@@H](c2ccc(OC)c(OC3CCCC3)c2)[C@](C)(CN)C1` [Example 2, Methyl (4S,3R)-3-(aminomethyl)-4-(3-cyclopentyloxy-4-methoxyphenyl)-3-methylpyrrolidinecarboxylate], it took 142 nM to reach a half-maximal effect in experiment [1] (EC50). Moreover, the IC50 on recombinant human PDE4 came out at 28.5 nM.

`COc1ccc(C2CN(Cc3ccccc3)C[C@]2(C)CN(C)C)cc1OC1CCCC1` (stereo partly drawn) [Example 22]: on recombinant human PDE4, the IC50 came out at 5890 nM.

Take `COc1ccc([C@@H]2CN(Cc3ccccc3)C[C@@]2(C)C(C)NS(C)(=O)=O)cc1OC1CCCC1` (stereo partly drawn) [Example 17, {1-[(3S,4S)-4-(3-Cyclopentyloxy-4-methoxyphenyl)-3-methyl-1-benzylpyrrolidin-3-yl]ethyl}-(methylsulfonyl)amine]: the IC50 on recombinant human PDE4 was 8660 nM.

For the compound `COc1ccc([C@@H]2CN(C(=O)C(C)(C)O)C[C@@]2(C)CN)cc1OCC1CC1` [Example 26], the EC50 in experiment [1] was found to be 450 nM. Also, on recombinant human PDE4, the IC50 turned out to be 235 nM.

Take `COC(=O)N1C[C@@H](c2ccc(OC)c(OC3CCCC3)c2)[C@](C)(CNC(C)=O)C1` [Example 4, Methyl (4S,3R)-3-[(acetylamino)methyl]-4-(3-cyclopentyloxy-4-methoxyphenyl)-3-methylpyrrolidine-carboxylate]: the IC50 on recombinant human PDE4 was found to be 3090 nM.

Take `COc1ccc([C@@H]2CN(Cc3ccccc3)C[C@@]2(C)C(C)NC(=O)c2ccccc2)cc1OC1CCCC1` (stereo partly drawn) [Example 11, N-{1-[(3S,4S)-4-(3-Cyclopentyloxy-4-methoxyphenyl)-3-methyl-1-benzylpyrrolidin-3-yl]ethyl}benzamide]: the IC50 on recombinant human PDE4 was 27100 nM.

On to `COc1ccc([C@@H]2CN(Cc3ccccc3)C[C@@]2(C)C(C)NC(C)=O)cc1OC1CCCC1` (stereo partly drawn) [Example 12, N-{1-[(3S,4S)-4-(3-Cyclopentyloxy-4-methoxyphenyl)-3-methyl-1-benzylpyrrolidin-3-yl]ethyl}acetamide], for which the IC50 at recombinant human PDE4 worked out at 14700 nM.

`COC(=O)N1C[C@@H](c2ccc(OC)c(OC3CCCC3)c2)[C@](C)(CNC(=O)OC(C)(C)C)C1` [Example 21]: the IC50 on recombinant human PDE4 is 2200 nM.

On to `COC(=O)N1C[C@@H](c2ccc(OC)c(OC3CCCC3)c2)[C@](C)(CNCc2ccccc2)C1` [Example 1, Methyl (4S,3R)-4-(3-cyclopentyloxy-4-methoxyphenyl)-3-methyl-3-{[benzylamino]methyl]}pyrrolidine carboxylate], for which the midpoint of the response in experiment [1], the EC50, lay at 776 nM. Besides, the IC50 at recombinant human PDE4 worked out at 1400 nM.

For the compound `COC(=O)N1C[C@@H](c2ccc(OC)c(OC3CCCC3)c2)[C@](C)(C(C)NC(C)=O)C1` (stereo partly drawn) [Example 14, 3-(S)-(1-Acetylaminoethyl)-4-(S)-(3-cyclopentyloxy-4-methoxyphenyl)-3-methylpyrrolidine-1-carboxic Acid Methyl Ester], the EC50 in experiment [1] was 598 nM.

With `CNC[C@]1(C)CN(Cc2ccccc2)CC1c1ccc(OC)c(OC2CCCC2)c1` (stereo partly drawn) [Example 23], the IC50 on recombinant human PDE4 was determined as 7550 nM.

`COC(=O)N1C[C@@H](c2ccc(OC)c(OCC3CC3)c2)[C@](C)(CN)C1` [Example 25] came in with an EC50 in experiment [1] of 85.5 nM. Further, the IC50 on recombinant human PDE4 amounted to 53 nM.
